We go through 11 compounds from PubChem BioAssay (NCI).

The structures appear in SMILES notation.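 Protocol summary: plate cells (96-well), add compound at 5 concentrations, incubate 48 h, interpolate endpoints linearly. Here, GI50 denotes the concentration required for 50% inhibition of growth. Definition used: TGI = concentration required for complete inhibition of growth.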 Where only a bound is given, the exact number is not on record here.

Among the test systems are OVCAR-5 ovarian; COLO 205 colon; SN12C renal; HCT-15 colon; HOP-92 NSCLC; SK-MEL-2 melanoma; SF-268 CNS; A549 NSCLC; CAKI-1 renal; A498 renal.
Assay in all cases: NCI-60 cell line screen, 48 h

Regarding `Cc1ccc(C)c(NC(=O)C(=O)Nn2c(=S)[nH]c3ccccc3c2=O)c1`, the TGI in the experiment with OVCAR-5 ovarian, in the experiment with COLO 205 colon, in the experiment on SN12C renal, in the experiment on HCT-15 colon, with HOP-92 NSCLC and in the experiment with SK-MEL-2 melanoma was > 100 µM in each case. In addition, the TGI with SF-268 CNS, in the experiment on A549 NSCLC, with CAKI-1 renal and with A498 renal was > 100 µM in each case.
As to `O=C(N/N=C/c1ccc(N(CCCl)CCCl)cc1)c1ccc(C(=O)N/N=C/c2ccc(N(CCCl)CCCl)cc2)cc1`, the GI50 is 71.5 µM with OVCAR-5 ovarian; 15.8 µM in the experiment with COLO 205 colon; 0.232 µM in the experiment on SN12C renal; > 100 µM with HCT-15 colon; 4.98 µM in the experiment with HOP-92 NSCLC; 2.13 µM in the experiment on SK-MEL-2 melanoma. For the same compound, the GI50 is 0.284 µM in the experiment with SF-268 CNS, 3.08 µM in the experiment on A549 NSCLC, 72.3 µM in the experiment with CAKI-1 renal and 15.1 µM in the experiment with A498 renal. For the same compound, the TGI was > 100 µM with OVCAR-5 ovarian; > 100 µM with COLO 205 colon; > 100 µM in the experiment on SN12C renal; > 100 µM with HCT-15 colon; 88.3 µM with HOP-92 NSCLC; 33.3 µM in the experiment on SK-MEL-2 melanoma. Besides, the TGI in the experiment with SF-268 CNS was 27.8 µM; in the experiment with A549 NSCLC, > 100 µM; with CAKI-1 renal, > 100 µM; in the experiment with A498 renal, > 100 µM.
Regarding `C1CC[N-]CC1.CC(=N\O)/C(C)=N/O.CC(=N\O)/C(C)=N/O.C[CH-]C(C)O.[Co+2]`, the GI50 is 35.1 µM in the experiment with OVCAR-5 ovarian; 14.9 µM in the experiment with COLO 205 colon; 40.1 µM in the experiment with SN12C renal; 30 µM with HCT-15 colon; 19.4 µM in the experiment on HOP-92 NSCLC; 17.9 µM in the experiment on SK-MEL-2 melanoma. Also, the GI50 in the experiment with SF-268 CNS is 29.4 µM; in the experiment with A549 NSCLC, 47.3 µM; in the experiment on CAKI-1 renal, 24 µM; in the experiment with A498 renal it was 23.9 µM. Moreover, the TGI is > 100 µM in the experiment on OVCAR-5 ovarian; 29 µM in the experiment with COLO 205 colon; > 100 µM with SN12C renal; > 100 µM with HCT-15 colon; 48.6 µM in the experiment with HOP-92 NSCLC; 34.9 µM with SK-MEL-2 melanoma. Moreover, the TGI in the experiment on SF-268 CNS was 95 µM; with A549 NSCLC, > 100 µM; in the experiment with CAKI-1 renal, 57.8 µM; in the experiment on A498 renal, 73.9 µM.
As to `NC1=Nc2ccccc2Sc2ccccc21`, the TGI with OVCAR-5 ovarian, with COLO 205 colon, in the experiment with SN12C renal, in the experiment on HCT-15 colon, with HOP-92 NSCLC and in the experiment with SK-MEL-2 melanoma was > 100 µM each time. Besides, the TGI in the experiment on SF-268 CNS, with A549 NSCLC, in the experiment with CAKI-1 renal and with A498 renal was > 100 µM throughout.
With `Cc1c(Cl)cccc1NC(=O)C(=O)c1c(O)c2ccc(O)cc2oc1=O`, the TGI in the experiment on OVCAR-5 ovarian, in the experiment with COLO 205 colon, in the experiment on SN12C renal, in the experiment with HCT-15 colon, in the experiment with HOP-92 NSCLC and with SK-MEL-2 melanoma was > 100 µM throughout. In addition, the TGI in the experiment with SF-268 CNS, in the experiment with A549 NSCLC, in the experiment on CAKI-1 renal and with A498 renal was > 100 µM in each case.
Regarding `O=C(N/C(=C\c1ccc(F)cc1)c1nc2ccccc2[nH]1)c1ccccc1`, the TGI with OVCAR-5 ovarian, in the experiment with COLO 205 colon, with SN12C renal, with HCT-15 colon, in the experiment with HOP-92 NSCLC and in the experiment with SK-MEL-2 melanoma was > 100 µM each time. Further, the TGI in the experiment with SF-268 CNS, in the experiment with A549 NSCLC, in the experiment with CAKI-1 renal and in the experiment on A498 renal was > 100 µM each time.
For `N#Cc1cc2c(cc1Cl)SC(=Nc1ccccc1)N(S(=O)(=O)c1ccc(Br)s1)S2(=O)=O`, the GI50 in the experiment on OVCAR-5 ovarian is 19.7 µM; with COLO 205 colon, 49.1 µM; with SN12C renal, 24 µM; in the experiment on HCT-15 colon, 17.9 µM; in the experiment on HOP-92 NSCLC, 17.6 µM; in the experiment on SK-MEL-2 melanoma, 15 µM. In addition, the GI50 is 20.6 µM in the experiment with SF-268 CNS, 24.7 µM with A549 NSCLC, 17.5 µM in the experiment with CAKI-1 renal and 21.9 µM with A498 renal. The TGI was 39.2 µM in the experiment with OVCAR-5 ovarian; > 100 µM in the experiment with COLO 205 colon; 49.6 µM in the experiment on SN12C renal; 38.8 µM in the experiment on HCT-15 colon; 39.7 µM with HOP-92 NSCLC; 37.8 µM with SK-MEL-2 melanoma. In addition, the TGI in the experiment with SF-268 CNS was 47.2 µM; with A549 NSCLC, 66.6 µM; in the experiment with CAKI-1 renal it was 33.8 µM; in the experiment on A498 renal it was 38 µM.
As to `CN(C)C(=S)/N=c1\ss/c(=N\S(=O)(=O)c2ccccc2)n1C`, the TGI in the experiment on OVCAR-5 ovarian, in the experiment with SN12C renal, with HCT-15 colon, in the experiment on HOP-92 NSCLC, in the experiment on SK-MEL-2 melanoma and in the experiment with SF-268 CNS was > 100 µM throughout. For the same compound, the TGI with A549 NSCLC, in the experiment on CAKI-1 renal and with A498 renal was > 100 µM each time.
Turning to `CCOc1ccccc1NC(=O)C1=C(C)NC(C)=C(C(=O)Nc2ccccc2OCC)C1c1cccc([N+](=O)[O-])c1`, the TGI was > 100 µM in the experiment with OVCAR-5 ovarian; > 100 µM with COLO 205 colon; > 100 µM in the experiment with SN12C renal; 41.3 µM with HOP-92 NSCLC; > 100 µM with SK-MEL-2 melanoma; > 100 µM with SF-268 CNS. Further, the TGI with A549 NSCLC, with CAKI-1 renal and in the experiment with A498 renal was > 100 µM throughout.
Consider `C[C@H]1CCC2C(OC(=O)[C@@H]2CN(C)C)[C@]2(C)C(=O)C=CC12O` (stereo partly specified), for which the TGI in the experiment with OVCAR-5 ovarian is 34.1 µM; in the experiment with COLO 205 colon it was 17.9 µM; in the experiment with SN12C renal, 14.6 µM; with HOP-92 NSCLC, 8.03 µM; in the experiment on SK-MEL-2 melanoma it was > 54.4 µM; in the experiment with SF-268 CNS, 28.6 µM. The TGI in the experiment on A549 NSCLC came out at 72.8 µM; in the experiment on CAKI-1 renal, 24.2 µM; with A498 renal, 31.2 µM.
For `CC/C(C)=C1\CCC(CN(C)C)C1=O` (stereo unspecified), the TGI with OVCAR-5 ovarian turned out to be 33.6 µM; in the experiment on SN12C renal, 38.3 µM; with HCT-15 colon, 29.2 µM; in the experiment on HOP-92 NSCLC, 46.2 µM; with SK-MEL-2 melanoma it was 32.5 µM; in the experiment with SF-268 CNS it was 43.2 µM. Also, the TGI was determined as 49.2 µM with A549 NSCLC, 4.36 µM in the experiment on CAKI-1 renal and 37.5 µM in the experiment on A498 renal.
